In patent publication US4198506A, “2-Carboxyalkyl-2,3-dihydro-6-mercapto-s-triazolo[4,3-b]-pyridazin-3-ones” (Bristol-Myers Company, priority 1979, dated 1980):
Converted amounts (≈) assume the structure as drawn. “And” between values parts separate entries of the source, which are not always exact repeats. Identical values can stand only once. Like-named read-outs stand apart in the source and are kept apart here.

Tests used:
Providencia sp. = test: In vitro activity (geometric mean MIC, serial dilution); assay type: cell-based; conditions: read-out: Geometric Mean MIC
Proteus (indole-) = test: as above; assay type: cell-based; conditions: 6 strains; Mueller-Hinton agar, inoculum 10^4 dilution; MIC cutoff 200 mcg./ml.; read-out: Geometric Mean MIC
[1] = system: Proteus (indole +, cephalosporinase +); test: as above; assay type: cell-based; conditions: 5 strains; Mueller-Hinton agar, inoculum 10^4 dilution; MIC cutoff 200 mcg./ml.; read-out: Geometric Mean MIC
Enterob. cloacae = test: In vitro antibacterial activity (Steers' agar dilution MIC); assay type: cell-based
S. aureus = test: as above; assay type: cell-based; conditions: Staphylococcus aureus
Text: (§1) In vitro Antibacterial Activity of BB-S493 Compared with
(§2) BB-S479 and Cefamandole (Determined by Steers' Agar Dilu-
(§3) tion Method on Mueller-Hinton Agar Plate)
(§4) In vitro antibacterial activity of BB-S 525 compared with
(§5) BB-S 479 and cefamandole (determined by Steers' agar dilution
(§6) method on Mueller-Hinton agar plate)

Shig. sonnei = test: as above; assay type: cell-based; conditions: Shigella sonnei
Text: as §1, §2, §3, §4, §5, §6

E. coli = test: as above; assay type: cell-based; conditions: Escherichia coli
Text: as §1, §2, §3, §4, §5, §6

Shig. flexneri = test: as above; assay type: cell-based
Text: as §1, §2, §3, §4, §5, §6

Kl. pneumoniae = test: as above; assay type: cell-based; conditions: Klebsiella pneumoniae
Text: as §1, §2, §3, §4, §5, §6

Sal. typhosa = test: as above; assay type: cell-based
Text: as §1, §2, §3, §4, §5, §6

D. pneumoniae = test: In vitro activity (geometric mean MIC, serial dilution); assay type: cell-based; conditions: Streptococcus pneumoniae; 9 strains; Mueller-Hinton agar, inoculum 10^4 dilution; MIC cutoff 200 mcg./ml.
[2] = system: Enterobacter (Cephalosporinase +); test: as above; assay type: cell-based; conditions: 7 strains, Mueller-Hinton agar, inoculum 10^4 dilution, MIC cutoff 200 mcg./ml.
Enterobacter (sensitive) = test: as above; assay type: cell-based; conditions: 3 strains, Mueller-Hinton agar, inoculum 10^4 dilution, MIC cutoff 200 mcg./ml., read-out: Geometric Mean MIC
E. coli (sensitive) = test: as above; assay type: cell-based; conditions: Escherichia coli, read-out: Geometric Mean MIC
Klebsiella sp. = test: as above; assay type: cell-based; conditions: 12 strains, Mueller-Hinton agar, inoculum 10^4 dilution, MIC cutoff 200 mcg./ml., read-out: Geometric Mean MIC
S. aureus Smith = test: In vivo activity (Mice, sc); conditions: several determinations listed
Text: |In vivo Activity of BB-[…] and Related Compounds (Mice, sc) | (PD50 (mgm./kg.)

S. pyogenes = test: In vitro activity (geometric mean MIC, serial dilution); assay type: cell-based; conditions: Streptococcus pyogenes; 10 strains; Mueller-Hinton agar, inoculum 10^4 dilution; MIC cutoff 200 mcg./ml.
[3] = system: S. aureus penicillinase+); test: as above; assay type: cell-based; conditions: Staphylococcus aureus, read-out: Geometric Mean MIC
St. faecalis = test: In vitro antibacterial activity (Steers' agar dilution MIC); assay type: cell-based; conditions: Enterococcus faecalis
Shig. dysenteriae = test: as above; assay type: cell-based; conditions: Shigella dysenteriae
S. aureus (sensitive) = test: In vitro activity (geometric mean MIC, serial dilution); assay type: cell-based; conditions: Staphylococcus aureus, read-out: Geometric Mean MIC
Serr. marcescens = test: In vitro antibacterial activity (Steers' agar dilution MIC); assay type: cell-based; conditions: Serratia marcescens
S. marcescens = test: In vitro activity (geometric mean MIC, serial dilution); assay type: cell-based; conditions: Serratia marcescens; 16 strains; Mueller-Hinton agar, inoculum 10^4 dilution; MIC cutoff 200 mcg./ml.; read-out: Geometric Mean MIC
Pr. mirabilis = test: In vitro antibacterial activity (Steers' agar dilution MIC); assay type: cell-based; conditions: Proteus mirabilis
Pr. morganii = test: as above; assay type: cell-based; conditions: Morganella morganii
Sal. enteritidis = test: as above; assay type: cell-based; conditions: Salmonella enterica

Which results are given for `Cn1nnnc1SCC1=C(C(=O)O)N2C(=O)[C@@H](NC(=O)[C@H](O)c3ccccc3)[C@H]2SC1` [Cefamandole, reference compound]?
MIC (Providencia sp.): 0.7 µg/mL (≈ 1.51 µM); MIC (Proteus (indole-)): 0.6 µg/mL (≈ 1.3 µM); MIC [1]: 3.6 µg/mL (≈ 7.78 µM); MIC (Enterob. cloacae; table 2 (BB-S493), Enterob. cloacae A9656): 3.1 µg/mL (≈ 6.7 µM); MIC (Enterob. cloacae; table 4 (BB-S 525), Enterob. cloacae): 1.6 µg/mL (≈ 3.46 µM); MIC (S. aureus; table 2 (BB-S493), S. aureus A9497): 0.05 µg/mL (≈ 0.108 µM); MIC (S. aureus; table 2 (BB-S493), S. aureus BX-1633 A9606): 0.2 µg/mL (≈ 0.432 µM); MIC (S. aureus; table 2 (BB-S493), S. aureus Smith A9537): 0.1 µg/mL (≈ 0.216 µM); MIC (S. aureus; table 4 (BB-S 525), S. aureus (strain not given)): 0.05 µg/mL (≈ 0.108 µM); MIC (S. aureus; table 4 (BB-S 525), S. aureus BX-1633): 0.2 µg/mL (≈ 0.432 µM); MIC (S. aureus; table 4 (BB-S 525), S. aureus Smith): 0.2 µg/mL (≈ 0.432 µM); MIC (Shig. sonnei; table 2 (BB-S493), Shig. sonnei A9516): 0.05 µg/mL (≈ 0.108 µM); MIC (Shig. sonnei; table 4 (BB-S 525), Shig. sonnei): 0.2 µg/mL (≈ 0.432 µM); MIC (E. coli; ATCC8739, table 2 (BB-S493), E. coli ATCC 8739, read-out: MIC): 0.05 µg/mL (≈ 0.108 µM); MIC (E. coli; ATCC8739, table 4 (BB-S 525), E. coli ATCC 8739): 6.3 µg/mL (≈ 13.6 µM); MIC (E. coli; table 2 (BB-S493), E. coli A9660, read-out: MIC): 0.1 µg/mL (≈ 0.216 µM); MIC (E. coli; table 2 (BB-S493), E. coli A15147, read-out: MIC): 3.1 µg/mL (≈ 6.7 µM); MIC (E. coli; table 2 (BB-S493), E. coli A15810, read-out: MIC): 0.2 µg/mL (≈ 0.432 µM); MIC (E. coli; table 2 (BB-S493), E. coli BX-1373, read-out: MIC): 0.4 µg/mL (≈ 0.865 µM); MIC (E. coli; table 2 (BB-S493), E. coli Juhl A15119, read-out: MIC): 0.4 µg/mL (≈ 0.865 µM); MIC (E. coli; table 2 (BB-S493), E. coli NIHJ, read-out: MIC): 0.025 µg/mL (≈ 0.0541 µM); MIC (E. coli; table 4 (BB-S 525), E. coli BX-1373, read-out: MIC): 0.2 µg/mL (≈ 0.432 µM); MIC (E. coli; table 4 (BB-S 525), E. coli Juhl, read-out: MIC): 0.4 µg/mL (≈ 0.865 µM); MIC (E. coli; table 4 (BB-S 525), E. coli NIHJ, read-out: MIC): 0.1 µg/mL (≈ 0.216 µM); MIC (E. coli; table 4 (BB-S 525), E. coli, strain not given, 1st line, read-out: MIC): 0.1 µg/mL (≈ 0.216 µM); MIC (E. coli; table 4 (BB-S 525), E. coli, strain not given, 2nd line, read-out: MIC): 0.05 µg/mL (≈ 0.108 µM); MIC (E. coli; table 4 (BB-S 525), E. coli, strain not given, 3rd line, read-out: MIC): 1.6 µg/mL (≈ 3.46 µM); MIC (Shig. flexneri; Shigella flexneri, table 2 (BB-S493), Shig. flexneri A9684, read-out: MIC): 3.1 µg/mL (≈ 6.7 µM); MIC (Shig. flexneri; table 4 (BB-S 525), Shig. flexneri): 3.1 µg/mL (≈ 6.7 µM); MIC (Kl. pneumoniae; table 2 (BB-S493), Kl. pneumoniae A9678): 1.6 µg/mL (≈ 3.46 µM); MIC (Kl. pneumoniae; table 2 (BB-S493), Kl. pneumoniae A9867): 0.8 µg/mL (≈ 1.73 µM); MIC (Kl. pneumoniae; table 2 (BB-S493), Kl. pneumoniae A9977): 0.4 µg/mL (≈ 0.865 µM); MIC (Kl. pneumoniae; table 2 (BB-S493), Kl. pneumoniae A15130): 0.4 µg/mL (≈ 0.865 µM); MIC (Kl. pneumoniae; table 4 (BB-S 525), Kl. pneumoniae, 1st line): 3.1 µg/mL (≈ 6.7 µM); MIC (Kl. pneumoniae; table 4 (BB-S 525), Kl. pneumoniae, 2nd line): 0.2 µg/mL (≈ 0.432 µM); MIC (Kl. pneumoniae; table 4 (BB-S 525), Kl. pneumoniae, 3rd line): 0.8 µg/mL (≈ 1.73 µM); MIC (Kl. pneumoniae; table 4 (BB-S 525), Kl. pnuemoniae, 4th line): 0.8 µg/mL (≈ 1.73 µM); MIC (Sal. typhosa; table 2 (BB-S493), Sal. typhosa A9498): 0.1 µg/mL (≈ 0.216 µM); MIC (Sal. typhosa; table 4 (BB-S 525), Sal. typhosa): 0.1 µg/mL (≈ 0.216 µM); MIC (D. pneumoniae): 0.2 µg/mL (≈ 0.432 µM); MIC [2]: 4.7 µg/mL (≈ 10.2 µM); MIC (Enterobacter (sensitive)): 1 µg/mL (≈ 2.16 µM); MIC (E. coli (sensitive)): 0.3 µg/mL (≈ 0.649 µM); MIC (Klebsiella sp.): 2.4 µg/mL (≈ 5.19 µM); ED50 (S. aureus Smith; Staphylococcus aureus, read-out: PD50): 0.93 mg/kg; PD50 (S. aureus Smith): 0.74 mgm./kg. and 0.6 mgm./kg. and 0.8 mgm./kg.; MIC (S. pyogenes): 0.04 µg/mL (≈ 0.0865 µM); MIC [3]: 0.4 µg/mL (≈ 0.865 µM); MIC (St. faecalis): 50 µg/mL (≈ 108 µM); MIC (St. faecalis; table 4 (BB-S 525), St. faecalis, read-out: MIC): 100 µg/mL (≈ 216 µM); MIC (Shig. dysenteriae; table 2 (BB-S493), Shig dysenteriae): 0.2 µg/mL (≈ 0.432 µM); MIC (Shig. dysenteriae; table 4 (BB-S 525), Shig. dysenteriae): 0.1 µg/mL (≈ 0.216 µM); MIC (S. aureus (sensitive)): 0.1 µg/mL (≈ 0.216 µM); MIC (Serr. marcescens; table 4 (BB-S 525), Serr. marcescens): 50 µg/mL (≈ 108 µM); MIC (Serr. marcescens; table 2 (BB-S493), Serr. marcescens A20019): 50 µg/mL (≈ 108 µM); MIC (S. marcescens): 34 µg/mL (≈ 73.5 µM); MIC (Pr. mirabilis; table 2 (BB-S493), Pr. mirabilis A9554): 0.8 µg/mL (≈ 1.73 µM); MIC (Pr. mirabilis; table 2 (BB-S493), Pr. mirabilis A9900): 0.8 µg/mL (≈ 1.73 µM); MIC (Pr. mirabilis; table 4 (BB-S 525), Pr. mirabilis, 1st line): 0.4 µg/mL (≈ 0.865 µM); MIC (Pr. mirabilis; table 4 (BB-S 525), Pr. mirabilis, 2nd line, read-out: MIC): 0.2 µg/mL (≈ 0.432 µM); MIC (Pr. morganii; table 2 (BB-S493), Pr. morganii A9553, read-out: MIC): > 100 µg/mL; MIC (Pr. morganii; table 2 (BB-S493), Pr. morganii A20031): 0.8 µg/mL (≈ 1.73 µM); MIC (Pr. morganii; table 4 (BB-S 525), Pr. morganii, 1st line): 3.1 µg/mL (≈ 6.7 µM); MIC (Pr. morganii; table 4 (BB-S 525), Pr. morganii, 2nd line): 0.8 µg/mL (≈ 1.73 µM); MIC (Sal. enteritidis; table 2 (BB-S493), Sal. enteritidis A9531): 0.1 µg/mL (≈ 0.216 µM); MIC (Sal. enteritidis; table 4 (BB-S 525), Sal. enteritidis): 0.1 µg/mL (≈ 0.216 µM)
